How the values were obtained:
[1] = tested on: monoclonal antibodies DD-1, DD-3, DD-4, DD-5 and DD-6; experiment: Competition ELISA, statements for all antibodies together; assay type: binding, BALB/c and Biozzi mice; conditions: for reactivity of all antibodies with competitor: up to the highest concentration tested (100 ppb)
Description: (§1) In this case the hybridomas were then screened for their ability to distinguish A-triCDD-BSA and A-triCDD-RSA from BSA and RSA. On the basis of this initial screen about 25 stable, antibody-producing colonies were isolated, subcloned, and frozen. The remaining clones were again screened for their abilities to recognize free TCDD in suspension. Experimentally, on the order of 10-100 nanograms of TCDD in hexane was dried, 0.5 ml of saline with BSA (1 mg/ml) was added and sonificated for 2 hrs. […] Identical procedures were followed for other dioxin isomers. A dilution series in microtiter plate wells was then made with the suspended TCDD, antibody adde, and the competition ELISA completed. Competition ELISA test procedures are discussed in detail in the following reference: Butt, W. R. (1984) "Practical Immunoassay: The State of the Art", Marcel Dekker, Inc., N.Y., N.Y.
(§2) A large part of the success that we have had in characterizing the binding specificities of our monoclonal antibodies comes from having developed a reliable competition ELISA protocol. Our preferred assay starts from stock solutions at 10 ppm in hexane of the various compounds listed in Table I. 10 μl of hexane solution is aliquoted into a small vial, evaporated under a stream of nitrogen gas, and 500 μl of a 1 mg/ml solution of BSA in phosphate buffered saline with 0.1% BSA is added. The vial is capped and placed in an ultrasonic cleaning waterbath for two hours. Two hours of sonification gives a more reproducible assay than does an hour. During the sonification, the hexane appears to evaporate completely, and one is left with an aqueous solution containing the dioxin. Microtiter plates coated with A-triCDD-RSA are blocked with a three percent solution of ovalbumin and a two-fold dilution series of sonificated dioxin-BSA is then made, covering the range 100 ppb-0.1 ppb. In each well of the plate 100 μl of the sonificated dioxin-BSA solution is mixed with n equal volume of antibody. The antibody partitions between the dioxin adsorbed to the BSA, and the A-tri-CDD-RSA on the plate.
(§3) A-TriCDD-RSA was adsorbed onto the surface of the wells of a microtiter plate. The various competitors listed were suspended in saline containing bovine serum albumin (BSA). These solutions were made by sonificating 10 μl of dioxin solution in hexane with 500 μl of saline-BSA. A dilution series of these dioxin-BSA solutions was then made covering the range of 100-0.2 ppb, and placed in the microtiter plate wells. An equal volume of DD-1 monoclonal antibody was then added, and allowed to react for 1 hour. Tne antibody binds either to the A-TriCDD-RSA on the plate or the dioxin in solution. After the hour, the solution phase is removed, the plate washed, and it is reincubated for an hour with peroxidase-conjugated goat-anti-mouse-immunoglobulins. A second washing is then done, and substrate (ABTS) added to the peroxidase. The enzyme-antibody conjugate and substrate function as a "developer", allowing the visualization of the DD-1 bound to the A-triCDD-RSA on the plate. Results are then expressed as a fraction of the response in wells with no competitor. […] At about 20 ppb of 2,3,7,8-TCDD the relative ELISA response is half of control, meaning that half the DD-1 antibody bound to the solution phase dioxin and half bound to the A-triCDD-RSA on the plate. For 1,2,3,7(8)-TCDD, 50% inhibition occurs at about 4 ppb, indicating the DD-1 prefers 1,2,3,7(8)-TCDD to 2,3,7,8-TCDD.
(§4) The FIGURE and Table II show representative competition data using several chlorinated compounds as competitors. From such data, one can determine the concentration required to inhibit antibody binding by 50% (I50). Table II lists the I50 for all compounds tested with the antibodies. In reporting these values, factors of two are about the limit of significance. […] The binding specificities of these antibodies are highly desirable, since they prefer the most toxic of the dioxin and dibenzofuran isomers.

[2] = target: monoclonal antibody DD-3; experiment: Competition ELISA with monoclonal antibody DD-3; assay type: binding, BALB/c mice; conditions: competitor vs monoclonal antibody DD-3; plate coated with A-triCDD-RSA
Description: as §1, §2, §3, §4

[3] = target: monoclonal antibody DD-4; experiment: Competition ELISA with monoclonal antibody DD-4; assay type: binding, BALB/c mice; conditions: competitor vs monoclonal antibody DD-4; plate coated with A-triCDD-RSA
Description: as §1, §2, §3, §4

[4] = target: monoclonal antibody DD-5; experiment: Competition ELISA with monoclonal antibody DD-5; assay type: binding, Biozzi mice; conditions: competitor vs monoclonal antibody DD-5; plate coated with A-triCDD-RSA
Description: as §1, §2, §3, §4

[5] = target: monoclonal antibody DD-6; experiment: Competition ELISA with monoclonal antibody DD-6; assay type: binding, Biozzi mice; conditions: competitor vs monoclonal antibody DD-6; plate coated with A-triCDD-RSA
Description: as §1, §2, §3, §4

[6] = tested on: monoclonal antibody DD-1; experiment: Competition ELISA with monoclonal antibody DD-1; assay type: binding, Biozzi mice; conditions: for I50 (inhibits antibody binding by 50%): competitor vs monoclonal antibody DD-1, plate coated with A-triCDD-RSA
Description: as §1, §2, §3, §4

## Clc1c(Cl)c(Cl)c2c(c1Cl)Oc1c(Cl)c(Cl)c(Cl)c(Cl)c1O2 [Octachloro-DD, octachlorodibenzodioxin]
[1]
  reactivity of all antibodies with competitor: either do not react or react only marginally
[2]
  I50 (inhibits antibody binding by 50%): > 200 ng
[3]
  I50 (inhibits antibody binding by 50%): > 200 ng
[4]
  I50 (inhibits antibody binding by 50%): > 10 ng
[5]
  I50 (inhibits antibody binding by 50%): > 200 ng
[6]; FIGURE, DD-1, 100-0.2 ppb
  reaction of DD-1 with competitor: does not react
[6]
  I50 (inhibits antibody binding by 50%): > 200 ng

## Clc1cc2oc3cc(Cl)c(Cl)cc3c2cc1Cl [2,3,7,8-TCDBF]
[1]
  affinity / recognition by all antibodies: slightly less affinity
[2]
  I50 (inhibits antibody binding by 50%): 0.9 ng
[3]
  I50 (inhibits antibody binding by 50%): 5 ng
[4]
  I50 (inhibits antibody binding by 50%): 1 ng
[5]
  I50 (inhibits antibody binding by 50%): 0.5 ng
[6]
  I50 (inhibits antibody binding by 50%): 0.65 ng

## Clc1cc(Cl)c2c(c1)Oc1cc(Cl)c(Cl)cc1O2 [1,3,7,8-TCDD]
[1]
  affinity / recognition by all antibodies: highest affinity
[2]
  I50 (inhibits antibody binding by 50%): 0.15 ng
[3]
  I50 (inhibits antibody binding by 50%): > 2 ng
[5]
  I50 (inhibits antibody binding by 50%): 1 ng
[6]
  I50 (inhibits antibody binding by 50%): 0.2 ng

## Clc1c(Cl)c(Cl)c2c(oc3c(Cl)c(Cl)c(Cl)c(Cl)c32)c1Cl [Octachloro-DBF]
[1]
  reactivity of all antibodies with competitor: either do not react or react only marginally
[2]
  I50 (inhibits antibody binding by 50%): > 200 ng
[3]
  I50 (inhibits antibody binding by 50%): > 200 ng
[4]
  I50 (inhibits antibody binding by 50%): > 10 ng
[5]
  I50 (inhibits antibody binding by 50%): > 200 ng
[6]
  I50 (inhibits antibody binding by 50%): > 200 ng

## O=[N+]([O-])c1cc(Cl)cc(Cl)c1O [2,4-Dichloro-6-nitrophenol, 2,4-Dichloro-6-nitro-phenol]
[2]
  I50 (inhibits antibody binding by 50%): > 2000 ng
[3]
  I50 (inhibits antibody binding by 50%): > 2000 ng
[4]
  I50 (inhibits antibody binding by 50%): > 2000 ng
[5]
  I50 (inhibits antibody binding by 50%): > 2000 ng
[6]
  I50 (inhibits antibody binding by 50%): > 2000 ng

## O=C(O)COc1cc(Cl)c(Cl)cc1Cl [2,4,5-Trichlorophenoxyacet, 2,4,5-Trichloro-phenoxyacet]
[2]
  I50 (inhibits antibody binding by 50%): > 2000 ng
[3]
  I50 (inhibits antibody binding by 50%): > 2000 ng
[4]
  I50 (inhibits antibody binding by 50%): > 2000 ng
[5]
  I50 (inhibits antibody binding by 50%): 2700 ng
[6]
  I50 (inhibits antibody binding by 50%): 2000 ng

## ClC1=C(Cl)C2(Cl)C3C(Cl)C(Cl)CC3C1(Cl)C2(Cl)Cl (centres unmarked) [Chlordane]
[2]
  I50 (inhibits antibody binding by 50%): > 2000 ng
[3]
  I50 (inhibits antibody binding by 50%): > 2000 ng
[4]
  I50 (inhibits antibody binding by 50%): > 2000 ng
[5]
  I50 (inhibits antibody binding by 50%): > 2000 ng
[6]
  I50 (inhibits antibody binding by 50%): > 2000 ng

## O=C1C2(Cl)C3(Cl)C4(Cl)C(Cl)(Cl)C5(Cl)C3(Cl)C1(Cl)C5(Cl)C24Cl (centres unmarked) [Kepon]
[2]
  I50 (inhibits antibody binding by 50%): > 2000 ng
[3]
  I50 (inhibits antibody binding by 50%): > 2000 ng
[4]
  I50 (inhibits antibody binding by 50%): > 2000 ng
[5]
  I50 (inhibits antibody binding by 50%): > 2000 ng
[6]
  I50 (inhibits antibody binding by 50%): > 2000 ng
